The source of these data is patent US10189816B2, “Substituted pyridines as inhibitors of human immunodeficiency virus replication” (priority 2015, dated 2019).

pEC50: −log10 of the molar value. Like-named read-outs stand apart in the source and are kept apart here. A value given as a limit tells only on which side of the number the result lay.

One may read the EC50 as the concentration that produces a half-maximal response.

The subject of the assay is NL-RLuc virus. In words: Inhibition of HIV replication (NL-RLuc reporter virus in MT-2 cells, luciferase readout). Format: cell-based. To be noted: Human immunodeficiency virus 1, MT2, 120 h; for pEC50: read-out: Activity; for EC50: read-out: EC50 μM. The method in brief: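 Antiviral EC50 came from luciferase signal after 5-day multicycle replication of NL-RLuc virus in MT-2 cells with serially diluted compound (RPMI 1640, 10% heat-inactivated FBS), fitted by the median effect equation over at least 2 experiments.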

In the case of `COc1cc(F)c(F)cc1CN1CCc2cc(-c3c(C)nc(C)c([C@H](OC(C)(C)C)C(=O)O)c3N3CCC(C)(C)CC3)ccc2C1` [Compound 86, (S)-2-(tert-butoxy)-2-(5-(2-(4,5-difluoro-2-methoxybenzyl)-1,2,3,4-tetrahydroisoquinolin-6-yl)-4-(4,4-dimethylpiperidin-1-yl)-2,6-dimethylpyridin-3-yl)acetic acid], the pEC50 was greater than 7.00. Same read-out and setting: under `COc1ccc(F)c(F)c1CN1CCc2cc(-c3c(C)nc(C)c([C@H](OC(C)(C)C)C(=O)O)c3N3CCC(C)(C)CC3)ccc2C1` [Compound 87, (S)-2-(tert-butoxy)-2-(5-(2-(2,3-difluoro-6-methoxybenzyl)-1,2,3,4-tetrahydroisoquinolin-6-yl)-4-(4,4-dimethylpiperidin-1-yl)-2,6-dimethylpyridin-3-yl)acetic acid] stands greater than 7.00. With `Cc1nc(C)c([C@H](OC(C)(C)C)C(=O)O)c(N2CCC(C)(C)CC2)c1-c1ccc2c(c1)CCN(Cc1ccccc1OCCO)C2` [Compound 88, (S)-2-(tert-butoxy)-2-(4-(4,4-dimethylpiperidin-1-yl)-5-(2-(2-(2-hydroxyethoxy)benzyl)-1,2,3,4-tetrahydroisoquinolin-6-yl)-2,6-dimethylpyridin-3-yl)acetic acid], the pEC50 was greater than 7.00 and the EC50 was 0.012 µM. `CCOc1cc(Cl)cc(Cl)c1CN1CCc2cc(-c3c(C)nc(C)c([C@H](OC(C)(C)C)C(=O)O)c3N3CCC(C)(C)CC3)ccc2C1` [Compound 90, (S)-2-(tert-butoxy)-2-(5-(2-(2,4-dichloro-6-ethoxybenzyl)-1,2,3,4-tetrahydroisoquinolin-6-yl)-4-(4,4-dimethylpiperidin-1-yl)-2,6-dimethylpyridin-3-yl)acetic acid]: the pEC50 was greater than 7.00. Same read-out and setting: under `COc1ccc(CN2CCc3cc(-c4c(C)nc(C)c([C@H](OC(C)(C)C)C(=O)O)c4N4CCC(C)(C)CC4)ccc3C2)c(Cl)c1Cl` [Compound 91, (S)-2-(tert-butoxy)-2-(5-(2-(2,3-dichloro-4-methoxybenzyl)-1,2,3,4-tetrahydroisoquinolin-6-yl)-4-(4,4-dimethylpiperidin-1-yl)-2,6-dimethylpyridin-3-yl)acetic acid] stands greater than 7.00; under `COc1ccc(F)c(CN2CCc3cc(-c4c(C)nc(C)c([C@H](OC(C)(C)C)C(=O)O)c4N4CCC(C)(C)CC4)ccc3C2)c1F` [Compound 92, (S)-2-(tert-butoxy)-2-(5-(2-(2,6-difluoro-3-methoxybenzyl)-1,2,3,4-tetrahydroisoquinolin-6-yl)-4-(4,4-dimethylpiperidin-1-yl)-2,6-dimethylpyridin-3-yl)acetic acid], greater than 7.00; under `COc1cc(CN2CCc3cc(-c4c(C)nc(C)c([C@H](OC(C)(C)C)C(=O)O)c4N4CCC(C)(C)CC4)ccc3C2)c(F)cc1Cl` [Compound 93, (S)-2-(tert-butoxy)-2-(5-(2-(4-chloro-2-fluoro-5-methoxybenzyl)-1,2,3,4-tetrahydroisoquinolin-6-yl)-4-(4,4-dimethylpiperidin-1-yl)-2,6-dimethylpyridin-3-yl)acetic acid], greater than 7.00.

As for `COc1cc(CN2CCc3cc(-c4c(C)nc(C)c([C@H](OC(C)(C)C)C(=O)O)c4N4CCC(C)(C)CC4)ccc3C2)c(F)cc1F` [Compound 94, (S)-2-(tert-butoxy)-2-(5-(2-(2,4-difluoro-5-methoxybenzyl)-1,2,3,4-tetrahydroisoquinolin-6-yl)-4-(4,4-dimethylpiperidin-1-yl)-2,6-dimethylpyridin-3-yl)acetic acid], the pEC50 was greater than 7.00. Same read-out and setting: under `COc1c(F)cc(CN2CCc3cc(-c4c(C)nc(C)c([C@H](OC(C)(C)C)C(=O)O)c4N4CCC(C)(C)CC4)ccc3C2)cc1F` [Compound 95, (S)-2-(tert-butoxy)-2-(5-(2-(3,5-difluoro-4-methoxybenzyl)-1,2,3,4-tetrahydroisoquinolin-6-yl)-4-(4,4-dimethylpiperidin-1-yl)-2,6-dimethylpyridin-3-yl)acetic acid] stands greater than 7.00. As to `Cc1nc(C)c([C@H](OC(C)(C)C)C(=O)O)c(N2CCC(C)(C)CC2)c1-c1ccc2c(c1)CCN(Cc1cc(F)cc(F)c1F)C2` [Compound 96, (S)-2-(tert-butoxy)-2-(4-(4,4-dimethylpiperidin-1-yl)-2,6-dimethyl-5-(2-(2,3,5-trifluorobenzyl)-1,2,3,4-tetrahydroisoquinolin-6-yl)pyridin-3-yl)acetic acid], the pEC50 was greater than 7.00 and the EC50 came to 0.003 µM. `COc1ccc(CN2CCc3cc(-c4c(C)nc(C)c([C@H](OC(C)(C)C)C(=O)O)c4N4CCC(C)(C)CC4)ccc3C2)cc1F` [Compound 97, (S)-2-(tert-butoxy)-2-(4-(4,4-dimethylpiperidin-1-yl)-5-(2-(3-fluoro-4-methoxybenzyl)-1,2,3,4-tetrahydroisoquinolin-6-yl)-2,6-dimethylpyridin-3-yl)acetic acid]: the pEC50 is greater than 7.00.

Consider `COc1c(CN2CCc3cc(-c4c(C)nc(C)c([C@H](OC(C)(C)C)C(=O)O)c4N4CCC(C)(C)CC4)ccc3C2)cccc1C(F)(F)F` [Compound 98, (S)-2-(tert-butoxy)-2-(4-(4,4-dimethylpiperidin-1-yl)-5-(2-(2-methoxy-3-(trifluoromethyl)benzyl)-1,2,3,4-tetrahydroisoquinolin-6-yl)-2,6-dimethylpyridin-3-yl)acetic acid], for which the pEC50 is greater than 7.00.

On to `COc1ccc(Cl)cc1CN1CCc2cc(-c3c(C)nc(C)c([C@H](OC(C)(C)C)C(=O)O)c3N3CCC(C)(C)CC3)ccc2C1` [Compound 99, (S)-2-(tert-butoxy)-2-(5-(2-(5-chloro-2-methoxybenzyl)-1,2,3,4-tetrahydroisoquinolin-6-yl)-4-(4,4-dimethylpiperidin-1-yl)-2,6-dimethylpyridin-3-yl)acetic acid], for which the pEC50 was greater than 7.00. With `COc1cc(Cl)cc(CN2CCc3cc(-c4c(C)nc(C)c([C@H](OC(C)(C)C)C(=O)O)c4N4CCC(C)(C)CC4)ccc3C2)c1` [Compound 100, (S)-2-(tert-butoxy)-2-(5-(2-(3-chloro-5-methoxybenzyl)-1,2,3,4-tetrahydroisoquinolin-6-yl)-4-(4,4-dimethylpiperidin-1-yl)-2,6-dimethylpyridin-3-yl)acetic acid], the pEC50 is greater than 7.00.

Consider `COc1cc(CN2CCc3cc(-c4c(C)nc(C)c([C@H](OC(C)(C)C)C(=O)O)c4N4CCC(C)(C)CC4)ccc3C2)ccc1F` [Compound 101, (S)-2-(tert-butoxy)-2-(4-(4,4-dimethylpiperidin-1-yl)-5-(2-(4-fluoro-3-methoxybenzyl)-1,2,3,4-tetrahydroisoquinolin-6-yl)-2,6-dimethylpyridin-3-yl)acetic acid], for which the pEC50 is greater than 7.00. The same measure, in the same setting: under `Cc1nc(C)c([C@H](OC(C)(C)C)C(=O)O)c(N2CCC(C)(C)CC2)c1-c1ccc2c(c1)CCN(Cc1ccc(OC(F)(F)F)cc1)C2` [Compound 102, (S)-2-(tert-butoxy)-2-(4-(4,4-dimethylpiperidin-1-yl)-2,6-dimethyl-5-(2-(4-(trifluoromethoxy)benzyl)-1,2,3,4-tetrahydroisoquinolin-6-yl)pyridin-3-yl)acetic acid] stands greater than 7.00. Consider `CCOc1cccc(CN2CCc3cc(-c4c(C)nc(C)c([C@H](OC(C)(C)C)C(=O)O)c4N4CCC(C)(C)CC4)ccc3C2)c1` [Compound 103, (S)-2-(tert-butoxy)-2-(4-(4,4-dimethylpiperidin-1-yl)-5-(2-(3-ethoxybenzyl)-1,2,3,4-tetrahydroisoquinolin-6-yl)-2,6-dimethylpyridin-3-yl)acetic acid], for which the pEC50 was greater than 7.00 and the EC50 turned out to be 0.012 µM. As for `Cc1nc(C)c([C@H](OC(C)(C)C)C(=O)O)c(N2CCC(C)(C)CC2)c1-c1ccc2c(c1)CCN(Cc1ccc(OC(F)(F)F)c(Cl)c1)C2` [Compound 104, (S)-2-(tert-butoxy)-2-(5-(2-(3-chloro-4-(trifluoromethoxy)benzyl)-1,2,3,4-tetrahydroisoquinolin-6-yl)-4-(4,4-dimethylpiperidin-1-yl)-2,6-dimethylpyridin-3-yl)acetic acid], the pEC50 is greater than 7.00. On the same count and under the same terms, under `Cc1nc(C)c([C@H](OC(C)(C)C)C(=O)O)c(N2CCC(C)(C)CC2)c1-c1ccc2c(c1)CCN(Cc1ccc(OC(F)F)cc1F)C2` [Compound 105, (S)-2-(tert-butoxy)-2-(5-(2-(4-(difluoromethoxy)-2-fluorobenzyl)-1,2,3,4-tetrahydroisoquinolin-6-yl)-4-(4,4-dimethylpiperidin-1-yl)-2,6-dimethylpyridin-3-yl)acetic acid] stands greater than 7.00; under `COc1cc(F)c(CN2CCc3cc(-c4c(C)nc(C)c([C@H](OC(C)(C)C)C(=O)O)c4N4CCC(C)(C)CC4)ccc3C2)c(F)c1` [Compound 106, (S)-2-(tert-butoxy)-2-(5-(2-(2,6-difluoro-4-methoxybenzyl)-1,2,3,4-tetrahydroisoquinolin-6-yl)-4-(4,4-dimethylpiperidin-1-yl)-2,6-dimethylpyridin-3-yl)acetic acid], greater than 7.00; under `COc1cc(F)cc(F)c1CN1CCc2cc(-c3c(C)nc(C)c([C@H](OC(C)(C)C)C(=O)O)c3N3CCC(C)(C)CC3)ccc2C1` [Compound 107, (S)-2-(tert-butoxy)-2-(5-(2-(2,4-difluoro-6-methoxybenzyl)-1,2,3,4-tetrahydroisoquinolin-6-yl)-4-(4,4-dimethylpiperidin-1-yl)-2,6-dimethylpyridin-3-yl)acetic acid], greater than 7.00. Turning to `Cc1nc(C)c([C@H](OC(C)(C)C)C(=O)O)c(N2CCC(C)(C)CC2)c1-c1ccc2c(c1)CCN(Cc1ccc(OC(F)(F)F)c(F)c1)C2` [Compound 108, (S)-2-(tert-butoxy)-2-(4-(4,4-dimethylpiperidin-1-yl)-5-(2-(3-fluoro-4-(trifluoromethoxy)benzyl)-1,2,3,4-tetrahydroisoquinolin-6-yl)-2,6-dimethylpyridin-3-yl)acetic acid], the pEC50 was greater than 7.00.
